Broadly, the Ki is the dissociation constant of the complex between target and ligand, obtained from inhibition or displacement.

The test system of experiment [1] is GCG-mediated increases in blood glucose. The experiment is described as follows: Glucagon challenge in vivo assay measuring blood glucose (normal dog glucagon challenge test). The note with it: 10 mg/kg oral gavage; fasted male beagle dogs; glucagon 5 μg/kg intramuscular 90 min after dosing. As for the experimental part:
Glucagon Challenge In Vivo Assay Measuring Blood Glucose
The efficacy of a glucagon receptor antagonist was evaluated using a normal dog glucagon challenge test. Male beagle dogs were overnight fasted prior to the study. Test compound (at 3 mg/kg and 10 mg/kg for Compound #196 and at 10 mg/kg for Compounds #180, #248 and #253) or vehicle (0.5% hydroxypropyl methylcellulose) was dosed via oral gavage. Ninety minutes later, the dogs (1.5 years old, ˜9 Kg) were submitted to a glucagon challenge test by a single intramuscular injection of glucagon (Glucagon, rDNA origin, Eli Lilly, Indianapolis, Ind.) at dose of 5 μg/kg. Blood glucose levels were determined at times −10 min, 0 min (on challenge), 10 min, 20 min, 30 min, and 60 min after glucagon injection.

The target in the next experiment is T1, human GCGR (Homo sapiens, UniProt P47871).
T1 construct: expressed in transfected cells; host or cells: HEK293 (hGluc-1HEK), pcDNA3.1, G418 selection
The experiment is described as follows: Cellular functional assay, cAMP readout (glucagon-stimulated cAMP, LANCE TR-FRET). The note with it: HEK293 cells stably expressing full-length human GCGR; glucagon 100 pM; IC50 converted to Ki; read-out: Inhibition of cAMP Ki. The experiment is classed as cell-based. (In general: Time-resolved FRET reads energy transfer from a long-lived donor to a nearby acceptor.)

T1 sequence (P47871 26-477): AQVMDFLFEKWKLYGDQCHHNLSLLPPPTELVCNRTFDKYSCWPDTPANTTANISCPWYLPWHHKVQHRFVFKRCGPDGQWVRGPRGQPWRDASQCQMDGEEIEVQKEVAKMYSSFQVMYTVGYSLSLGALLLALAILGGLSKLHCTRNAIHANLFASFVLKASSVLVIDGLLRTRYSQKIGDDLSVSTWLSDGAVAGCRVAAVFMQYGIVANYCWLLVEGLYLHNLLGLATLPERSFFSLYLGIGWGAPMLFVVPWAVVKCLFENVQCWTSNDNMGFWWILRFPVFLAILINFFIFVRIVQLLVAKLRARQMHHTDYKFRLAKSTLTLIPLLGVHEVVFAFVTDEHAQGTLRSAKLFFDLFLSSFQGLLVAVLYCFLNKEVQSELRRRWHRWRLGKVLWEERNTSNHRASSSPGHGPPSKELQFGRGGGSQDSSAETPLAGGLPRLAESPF

In the case of `Cc1cc(C(F)(F)F)ccc1-c1cc2cn([C@@H](CC(C)C)c3ccc(C(=O)NCCC(=O)O)cc3)nc2cc1C` [Compound #248, 3-[[4-[(1 S)-3-Methyl-1-[6-methyl-5-[2-methyl-4-(trifluoromethyl)phenyl]indazol-2-yl]butyl]benzoyl]amino]propanoic acid], the “inhibition of GCG-mediated increases in blood glucose vs vehicle” value in experiment [1] was 15%. Moreover, at human GCGR, the Ki was 25 nM.

Regarding `Cc1cc(C(F)(F)F)ccc1-c1cc2cnn([C@@H](CC(C)C)c3ccc(C(=O)NCCC(=O)O)cc3)c2cc1C` [Compound #253, 3-[[4-[(1S)-3-Methyl-1-[6-methyl-5-[2-methyl-4-(trifluoromethyl)phenyl]indazol-1-yl]butyl]benzoyl]amino]propanoic acid], the “inhibition of GCG-mediated increases in blood glucose vs vehicle” value in experiment [1] is on record as 17.1%. Besides, at human GCGR, the Ki came out at 14 nM.

The values above are taken from patent publication US10000473B2, “Indazole derivatives useful as glucagon receptor antagonists” (Janssen Pharmaceutica NV, priority 2016, dated 2018).
